The values below come from US5607934A, “Piperazine derivatives and salts thereof” (Otsuka Pharmaceutical Co., Ltd., priority 1993, dated 1997).

Molecules are shown by their SMILES. Converted amounts (≈) assume the structure as drawn.

For assay [1], the system named is rat mesangial cell proliferation. In words: Inhibitory effects on rat mesangial cell proliferation (interleukin-1β induced 3H-thymidine incorporation). In kind it is cell-based, SD-strain rat. The conditions noted are these: 1 ng/ml interleukin-1β, read-out: Rate of inhibition; for inhibition at 3 µg/mL: concentration 3 μg/ml; for inhibition at 10 µg/mL: concentration 10 μg/ml. The protocol: Inhibitory effects on rat mesangial cell proliferation
The kidney of SD-strain rat was aseptically taken out by excision. and the renal cortex was cut out therefrom. The renal glomeruli were isolated by use of sieve. The glomeruli were cultivated in RPMI1640 culture medium [which contains 10% of FBS (fetal bovine serum)] for 4 weeks. Thus obtained cells were used as mesangial cells.
An experiment of incorporation of thymidine by interleukin-1β was conducted by procedures according to the method of Ganz [Michael B. Ganz; Mary C. Perfetto and Walter F. Boron: American Journal of Physiology, Vol. 259, F269-F278, (1990)]. Thus, 2×10^4 cells/ml of mesangial cells were scattered on a 48-well plate (0.5 ml/well), and the cells were cultivated in RPMI culture medium (which contains 10% of FBS) for 3 days. Then, the culture medium was changed to another RPMI culture medium in which the concentration of FBS was decreased from 10% to 0.5% and cultivated for 3 days. Next, the RPMI culture medium (containing 0.5% of FBS) was changed to other RPMI culture medium to which the test compound and 1 ng/ml of interleukin-1β were added. The cultivation was conducted for 24 hours, then 1 μCi/well of 3H-thymidine was added to the culture medium, and the cultivation was continued for additional 24 hours.
The amount of ^3 H-thymidine being incorporated into the mesangial cells was measured by use of a scintillation counter, and the rate of inhibition (%) in comparison of the test group vs. control group was calculated by the following formula:
Rate of inhibition (%)=[(C-D)/(C-E)]×100
C: the incorporated amount of ^3 H-thymidine in control group;
D: the incorporated amount of ^3 H-thymidine in the case of that test compound was added;
E: the incorporated amount of ^3 H-thymidine in the case of that interleukin-1β was not added.

Assay [2] concerns passive Heymann nephritis of rat. In words: Inhibitory effect against increase of urinary proteins in the passive Heymann nephritis of rat. In kind it is in vivo, SD-strain male rats. The conditions noted are these: oral, once a day for 7 days, urinary protein, 12th day. As to the method:
Inhibitory effect against increase of urinary proteins in the passive Heymann nephritis of rat
SD-strain male rats (7 week old, body weight: 200-230 g)were used as test animals.
An antiserum which will induce passive Heymann nephritis of rat was prepared by procedures according to the method of T. S. Edington, et al. [T. S. Edington, R. J. Glassock and F. J. Dixon: Autologous immune complex nephritis induced with renal tublar antigen. I. Identification and isolation of the pathogenetic antigen. Journal of Experimental Medicine Vol. 127, pp. 555-572 (1968).] as follows:
At the first, an antigen (FX1A fraction) of the renaltublar brush border was sampled from the SD rat. Next, the antigen was admixed with Freund' complete adjuvant, then a New Zealand White rabbit was sensitized therewith. The sensitization procedures were conducted 3 times in every 2 weeks, and 2 weeks after the final sensitization, the blood sample was obtained from the rabbit. […]
Heymann nephritis of the rats were induced by injecting the above-mentionedantiserum to the tail vein of the test rats. […] The urine samples of the rat were taken in time sequentially from the 10th day after the injection, and the amount of urinary protein in the samples were determined. The rate of inhibitory effect (%) against the production of urinary protein performed by the test compound was calculated by the formula as follows: […]

The subject of assay [3] is releasing of hydrogen peroxide (H2 O2) from the neutrocyte of abdominal cavity of rat. Description: Inhibitory effect against the releasing of hydrogen peroxide (H2O2) from the neutrocyte of abdominal cavity of rat. In kind it is cell-based, SD-strain rat. The conditions noted are these: rat neutrocytes 10^6 cells/ml; FMLP 2×10^-6 M; 37° C., 1 hour; OD610. As to the method: Inhibitory effect against the releasing of hydrogen peroxide (H2 O2) from the neutrocyte of abdominal cavity of rat
1%-Casein solution was administered to the abdominal cavity of a SD-strain rat, then 16 hours after the administration, the neutrocytes were obtained by washing the abdominal cavity. Thus obtained neutrocytes were washed with Hank's solution.
In to a reaction mixture consisting of the following ingredients:
______________________________________
HRP (Horse Radish peroxide)
HEPES [N-(2-Hydroxyethyl)pipera-
zine N'-2-ethanesulfonic acid]
Rat neutrocytes 10^6 cells/ml
the test compound was added, then the whole mixture was incubated at 37° C. for 1 hour, and the mixture was subjected to a centrifugal separation at 2,000 rpm for minutes. After the centrifugal separation, 1 ml of the supernatant was sampled and 10 μl of 1N-NaOH aqueous solution was added thereto. Then, the optical absorbance at 610 nm (OD610) of the supernatant was determined by means of using a spectro-photometer.
The IC50 (50% inhibitory concentration) of the test compound was obtained by calculating as the ratio of OD610 of the test group sample to that of the control group sample.

Assay [4] concerns superoxide radicals (O2^-) released from the peritoneal macrophage cells of guinea pig. In words: Inhibitory effect against superoxide radicals (O2^-) released from the peritoneal macrophage cells of guinea pig by stimulation (FMLP). Type of assay: cell-based. Conditions: Cavia porcellus, Peritoneal macrophage cell; guinea pig peritoneal macrophages 2×10^6 cells/ml; FMLP 10^-7 M; cytochrome C reduction, OD550. The protocol:
Inhibitory effect against superoxide radicals (O2^-) released from the peritoneal macrophage cells of guinea pig by stimulation:
Mineral oil (15 ml)was intraperitoneally administered to a guinea pig, then 96 hours after the administration, the peritoneal macrophage cells were sampled.
Superoxide radicals (O2^-) were determined by means of reduction of cytochrome C method according to the procedure described in an article written by T. Matsumoto, K. Takeshige and S. Minakami: Biochemical and Biophysical Research Communications, Vol. 88, No. 3, pp. 974-979, (1979).
Into 1 ml of 80 μM-cytochrome C solution, the peritoneal macrophage cells were added to make the final concentration of 2×10^6 cells/ml, then each one of the test compounds of the present invention was added thereto to make the test group sample. On the other hand, water was added in place of the test compound of the present invention to make the control group sample. Each of the test group samples and the control group samples were subjected to pre-incubation at 37° C. for 1 minute.
As to the stimulating agent for releasing superoxide radicals (O2^-), FMLP (formylmethionyl leucyl phenylalanine)was added to each one of the test sample solutions and the control group samples to make the final concentration of FMLP to 10^-7 M, then the sample solutions were subjected to additional reaction by incubation for 1 minute.
Difference between the optical absorbances measured at 550 nm (OD550) of both test group samples and control group samples were determined, the 50% inhibitory concentration (IC50) was obtained by calculating as the ratio of OD550 of the test group sample to that of the control group sample.

As for `CCOC(=O)C[C@@H]1NC(=O)[C@@H](Cc2c[nH]c3ccccc23)N(O)C1=O` [Example 57], in assay [1], the inhibition at 3 µg/mL was found to be 26.3 ± 5.8% and the inhibition at 10 µg/mL was 56.7 ± 2.9%. In assay [2] (5 mg/kg/day), the “Rate of inhibitory effect” value came out at 53.1 ± 15.1%. In assay [3], this compound showed an IC50 of 3 µg/mL (≈ 8.69 µM).
Take `CC(C)C[C@@H]1C(=O)N[C@H](Cc2cc(C(C)(C)C)c(O)c(C(C)(C)C)c2)C(=O)N1O` (racemic) [Example 13, (3RS,6RS)-3-(3,5-di-tert-butyl-4-hydroxybenzyl)-1-hydroxy-6-isobutylpiperazine-2,5-dione]: in assay [1], the inhibition at 3 µg/mL turned out to be 77.9 ± 8.3% and the inhibition at 10 µg/mL was 122 ± 6.1%. In assay [2] (20 mg/kg/day), the “Rate of inhibitory effect” value is 57.8 ± 6.1%. In addition, in assay [4], the concentration for half-maximal inhibition (IC50) came to 1.3 µg/mL (≈ 3.21 µM). The same compound registered an IC50 in assay [3] of under 5 µg/mL.
